SMILES strings stand for the structures.

The target of the first assay is T1, human MCH receptor 1 (MCHR1) (Homo sapiens, UniProt Q99705).
T1 construct: expressed in transfected cells; host or cells: CHO cell clone 57 (membrane fraction)
T1 sequence (Q99705 whole entry): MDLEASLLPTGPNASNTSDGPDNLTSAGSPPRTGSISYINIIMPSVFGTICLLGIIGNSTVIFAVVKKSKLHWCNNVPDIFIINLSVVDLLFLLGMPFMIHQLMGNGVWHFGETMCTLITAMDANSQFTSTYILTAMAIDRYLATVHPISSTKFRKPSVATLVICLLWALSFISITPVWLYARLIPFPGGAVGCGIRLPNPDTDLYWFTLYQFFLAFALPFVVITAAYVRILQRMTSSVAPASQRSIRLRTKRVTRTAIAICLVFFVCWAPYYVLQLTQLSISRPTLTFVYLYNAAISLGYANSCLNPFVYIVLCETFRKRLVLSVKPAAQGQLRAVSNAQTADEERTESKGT
Kind of assay: human MCH receptor 1 (MCHR1) competitive binding assay with [125I]-MCH(4-19). The following applies: test compound 0.1 μM, human MCHR1-expressing CHO cell membrane fraction, 0.1 µM. On the procedure: Determination of human MCH receptor 1 (MCHR1) competitive inhibitory activity of test compound using binding assay
1. Preparation of Membrane Fraction
Using human MCHR1 (=SLC-1 receptor)-expressing CHO cell clone 57 described in WO01/82925, MCHR1-expressing CHO cell membrane fractions were prepared by the following method.
In phosphate buffered saline (pH 7.4) supplemented with 5 mM EDTA (ethylenediaminetetraacetic acid) were respectively suspended human MCHR1-expressing CHO cells (1×10^8 cells) and centrifuged. Homogenate buffer (10 mL, 10 mM NaHCO3, 5 mM EDTA, pH 7.5, 0.5 mM PMSF (phenylmethylsulfonyl fluoride), 20 mg/L leupeptin, 4 mg/L E-64, 1 mg/L pepstatin A) was added to the pellets of the cells and, using Polytron Homogenizer, the mixture was homogenated. The supernatant obtained after centrifugation at 400×g for 10 min was further centrifuged at 100,000×g for 1 hr to give precipitate of the membrane fraction. The precipitate were suspended in 2 mL of assay buffer [20 mM Tris-HCl (pH 7.5), 5 mM EDTA, 0.5 mM PMSF, 20 mg/L leupeptin, 4 mg/L E-64, 1 mg/L pepstatin A]. The membrane fractions were suspended in assay buffer to a protein concentration of 2 mg/mL, and after dispensing, preserved at −80° C. and used upon thawing each time when in use.
The MCHR1 ligand binding inhibitory activity of the test compound was determined as follows.
An MCHR1-expressing CHO cell membrane fraction (173 μL) diluted with an assay buffer was dispensed to a 96 well polypropylene plate (3363, Corning). DMSO solution (2 μL), 33 μM cold MCH(1-19) diluted with DMSO solution (2 μL), or a test compound solution diluted with DMSO solution to various concentrations (2 μL) was added, and lastly, [^125I]-MCH (4-19) diluted with assay buffer (hereinafter, sometimes to be referred to as “hot MCH”, 25 μL) was added to each well. The mixture was reacted with stirring at room temperature for 1 hr, and the plate was set on FilterMate Harvester (PerkinElmer). Using a treating glass filter plate (GF/C, PerkinElmer) with polyethyleneimine, which had been previously set, the plate was suction-filtered and washed three times with washing buffer (50 mM Tris-HCl buffer pH 7.5). The glass filter plate was dried, MicroScinti0 (PerkinElmer) was added at 25 μL/well, and the resulting radioactivity was measured by TopCount liquid scintillation counter (PerkinElmer). The binding inhibition rate of the test compound was calculated by the following formula. Binding inhibition (%)=100−(radioactivity upon addition of test compound and hot MCH−radioactivity upon addition of cold MCH and hot MCH solution)/(radioactivity upon addition of DMSO solution and hot MCH−radioactivity upon addition of cold MCH and hot MCH solution)×100
The binding inhibition rates (%) of test compounds (0.1 μM) as measured using human MCHR1-expressing CHO cell are shown in Table 2.
On to `Cn1c([C@H]2C[C@@H]2F)nc2ccc(-n3ccc(OCc4ccc(Cl)cc4)cc3=O)cc21` (racemic) [Example 137, 4-((4-Chlorobenzyl)oxy)-1-(2-((1RS,2SR)-2-fluorocyclopropyl)-1-methyl-1H-benzimidazol-6-yl)pyridin-2(1H)-one], for which the “Binding inhibition rate % (0.1 μM)” value is 68%.

For `CCc1nc2ccc(-n3ccc(OCc4ccccc4)cc3=O)cc2n1C` [Example 47, 4-(Benzyloxy)-1-(2-ethyl-1-methyl-1H-benzimidazol-6-yl)pyridin-2(1H)-one], the “Binding inhibition rate % (0.1 μM)” value turned out to be 62%.

Still in this assay, the particulars now being: test compound 0.1 μM, human MCHR1-expressing CHO cell membrane fraction, read-out: Binding inhibition rate % (0.1 μM).
What is called inhibition is the share of the control response that was lost under treatment. For `Cn1c([C@H]2C[C@H]2F)nc2ccc(-n3ccc(OCc4ccc(Cl)cc4)cc3=O)cc21` (racemic) [Example 136, 4-((4-Chlorobenzyl)oxy)-1-(2-((1RS,2RS)-2-fluorocyclopropyl)-1-methyl-1H-benzimidazol-6-yl)pyridin-2(1H)-one], the inhibition at 0.1 µM amounted to 69%.

In the case of `Cn1c([C@@H]2C[C@@H]2CO)nc2ccc(-n3ccc(OCc4ccc(Cl)cc4)cc3=O)cc21` (racemic) [Example 149, 4-((4-Chlorobenzyl)oxy)-1-(2-((1RS,2SR)-2-(hydroxymethyl)cyclopropyl)-1-methyl-1H-benzimidazol-6-yl)pyridin-2(1H)-one], the inhibition at 0.1 µM came out at 55%.

In the case of `Cn1c([C@@H]2C[C@@H]2C(C)(C)O)nc2ccc(-n3ccc(OCc4ccccc4)cc3=O)cc21` (racemic) [Example 152, 4-(Benzyloxy)-1-(2-((1RS,2SR)-2-(2-hydroxypropan-2-yl)cyclopropyl)-1-methyl-1H-benzimidazol-6-yl)pyridin-2(1H)-one], the inhibition at 0.1 µM came to 75%.

Turning to `Cn1c([C@@H]2C[C@@H]2C(C)(C)F)nc2ccc(-n3ccc(OCc4ccccc4)cc3=O)cc21` (racemic) [Example 155, 4-(Benzyloxy)-1-(2-((1RS,2SR)-2-(2-fluoropropan-2-yl)cyclopropyl)-1-methyl-1H-benzimidazol-6-yl)pyridin-2(1H)-one], the inhibition at 0.1 µM stood at 54%.

As for `Cn1c([C@@H]2C[C@@H]2C(C)(C)O)nc2ccc(-n3ccc(OCc4ccc(Cl)s4)cc3=O)cc21` (racemic) [Example 203, 4-((5-Chloro-2-thienyl)methoxy)-1-(2-((1RS,2SR)-2-(2-hydroxypropan-2-yl)cyclopropyl)-1-methyl-1H-benzimidazol-6-yl)pyridin-2(1H)-one], the inhibition at 0.1 µM was 91%.

For `Cn1c([C@@H]2C[C@@H]2C(C)(C)O)nc2ccc(-n3ccc(OCc4ccc(Cl)cn4)cc3=O)cc21` (racemic) [Example 204, 4-((5-Chloropyridin-2-yl)methoxy)-1-(2-((1RS,2SR)-2-(2-hydroxypropan-2-yl)cyclopropyl)-1-methyl-1H-benzimidazol-6-yl)pyridin-2(1H)-one], the inhibition at 0.1 µM was 67%.

As to `Cn1c([C@@H]2C[C@@H]2C(C)(C)O)nc2ccc(-n3ccc(OCc4ccc(F)cc4)cc3=O)cc21` (racemic) [Example 205, 4-((4-Fluorobenzyl)oxy)-1-(2-((1RS,2SR)-2-(2-hydroxypropan-2-yl)cyclopropyl)-1-methyl-1H-benzimidazol-6-yl)pyridin-2(1H)-one], the inhibition at 0.1 µM is 76%.

With `CCC(O)(CC)[C@H]1C[C@H]1c1nc2ccc(-n3ccc(OCc4ccc(Cl)cc4)cc3=O)cc2n1C` (racemic) [Example 206, 4-((4-Chlorobenzyl)oxy)-1-(2-((1RS,2SR)-2-(3-hydroxypentan-3-yl)cyclopropyl)-1-methyl-1H-benzimidazol-6-yl)pyridin-2(1H)-one], the inhibition at 0.1 µM worked out at 95%.

`Cn1c([C@@H]2C[C@@H]2C(C)(C)O)nc2ccc(-n3ccc(OCc4ccc(F)c(F)c4)cc3=O)cc21` (racemic) [Example 212, 4-((3,4-Difluorobenzyl)oxy)-1-(2-((1RS,2SR)-2-(2-hydroxypropan-2-yl)cyclopropyl)-1-methyl-1H-benzimidazol-6-yl)pyridin-2(1H)-one]: the inhibition at 0.1 µM amounted to 80%.

For the molecule `Cn1c([C@@H]2C[C@@H]2C(C)(C)O)nc2ccc(-n3ccc(OCc4csc(Cl)c4)cc3=O)cc21` (racemic) [Example 215, 4-((5-Chloro-3-thienyl)methoxy)-1-(2-((1RS,2SR)-2-(2-hydroxypropan-2-yl)cyclopropyl)-1-methyl-1H-benzimidazol-6-yl)pyridin-2(1H)-one], the inhibition at 0.1 µM came to 92%.

`Cn1c([C@@H]2C[C@@H]2C(C)(C)O)nc2ccc(-n3ccc(OCc4ccc(Cl)c(F)c4)cc3=O)cc21` (racemic) [Example 220, 4-((4-Chloro-3-fluorobenzyl)oxy)-1-(2-((1RS,2SR)-2-(2-hydroxypropan-2-yl)cyclopropyl)-1-methyl-1H-benzimidazol-6-yl)pyridin-2(1H)-one]: the inhibition at 0.1 µM stood at 81%.

As to `Cn1c([C@@H]2C[C@@H]2C(C)(C)O)nc2ccc(-n3ccc(OCc4ccc(F)c(Cl)c4)cc3=O)cc21` (racemic) [Example 222, 4-((3-Chloro-4-fluorobenzyl)oxy)-1-(2-((1RS,2SR)-2-(2-hydroxypropan-2-yl)cyclopropyl)-1-methyl-1H-benzimidazol-6-yl)pyridin-2(1H)-one], the inhibition at 0.1 µM stood at 80%.

On to `Cn1c([C@@H]2CC[C@@H]2C(C)(C)O)nc2ccc(-n3ccc(OCc4ccc(Cl)cc4)cc3=O)cc21` (racemic) [Example 223, 4-((4-Chlorobenzyl)oxy)-1-(2-((1RS,2SR)-2-(2-hydroxypropan-2-yl)cyclobutyl)-1-methyl-1H-benzimidazol-6-yl)pyridin-2(1H)-one], for which the inhibition at 0.1 µM was 60%.

`Cc1c(C2CC2)nc2ccc(-n3ccc(OCc4ccc(C(F)(F)F)cc4)cc3=O)cn12` [Example 5, 1-(2-Cyclopropyl-3-methylimidazo[1,2-a]pyridin-6-yl)-4-((4-(trifluoromethyl)benzyl)oxy)pyridin-2(1H)-one]: the inhibition at 0.1 µM is 58%.

Regarding `CCn1c(C2CC2)nc2ccc(-n3ccc(OCc4ccc(F)cc4)cc3=O)cc21` [Example 20, 1-(2-Cyclopropyl-1-ethyl-1H-benzimidazol-6-yl)-4-((4-fluorobenzyl)oxy)pyridin-2(1H)-one], the inhibition at 0.1 µM stood at 59%.

With `CCn1c(C2CC2)nc2ccc(-n3ccc(OCc4ccc(Cl)cc4)cc3=O)cc21` [Example 21, 4-((4-Chlorobenzyl)oxy)-1-(2-cyclopropyl-1-ethyl-1H-benzimidazol-6-yl)pyridin-2(1H)-one], the inhibition at 0.1 µM was determined as 76%.

On to `Cc1c(C2CC2)nc2ccc(-n3ccc(OCc4ccc(F)cc4F)cc3=O)cn12` [Example 22, 1-(2-Cyclopropyl-3-methylimidazo[1,2-a]pyridin-6-yl)-4-((2,4-difluorobenzyl)oxy)pyridin-2(1H)-one], for which the inhibition at 0.1 µM amounted to 81%.

Turning to `Cc1nc2ccc(-n3ccc(OCc4ccc(Cl)cc4)cc3=O)cn2c1C` [Example 25, 4-((4-Chlorobenzyl)oxy)-1-(2,3-dimethylimidazo[1,2-a]pyridin-6-yl)pyridin-2(1H)-one], the inhibition at 0.1 µM amounted to 58%.

For `CCCn1c(C2CC2)nc2ccc(-n3ccc(OCc4ccc(Cl)cc4)cc3=O)cc21` [Example 27, 4-((4-Chlorobenzyl)oxy)-1-(2-cyclopropyl-1-propyl-1H-benzimidazol-6-yl)pyridin-2(1H)-one], the inhibition at 0.1 µM stood at 55%.

Turning to `Cc1c(C2CC2)nc2ccc(-n3ccc(OCc4ccc(Cl)cn4)cc3=O)cn12` [Example 32, 4-((5-Chloropyridin-2-yl)methoxy)-1-(2-cyclopropyl-3-methylimidazo[1,2-a]pyridin-6-yl)pyridin-2(1H)-one], the inhibition at 0.1 µM was determined as 83%.

Turning to `Cc1csc(COc2ccn(-c3ccc4nc(C5CC5)n(C)c4c3)c(=O)c2)c1` [Example 56, 1-(2-Cyclopropyl-1-methyl-1H-benzimidazol-6-yl)-4-((4-methyl-2-thienyl)methoxy)pyridin-2(1H)-one], the inhibition at 0.1 µM is 61%.

For `COc1ccc(COc2ccn(-c3ccc4nc(C5CC5)n(C)c4c3)c(=O)c2)cc1` [Example 77, 1-(2-Cyclopropyl-1-methyl-1H-benzimidazol-6-yl)-4-((4-methoxybenzyl)oxy)pyridin-2(1H)-one], the inhibition at 0.1 µM came to 71%.

(Values after patent publication US9365540B2, “Benzimidazole derivatives as MCH receptor antagonists” (Takeda Pharmaceutical Company Limited, priority 2012, dated 2016).)
